In US10792274B2, “Dehydroacetic acid (DHAA) and derivative for uses in treating cancer” (Emory University, priority 2016, dated 2020):
Entries after “also recorded” stand apart in the source; their conditions may differ.

Tests used:
BRAF V600E [1] = biological target: T1, BRAF V600E (Homo sapiens, UniProt P15056, V600E); experiment: 14C-labeled acetoacetate binding assay (radiometric metabolite-protein interaction)
Description: (§1) BRAF wild type and mutant proteins were incubated with increasing concentrations of ^14C-labeled acetoacetate.
(§2) A series of radiometric metabolite-protein interaction analyses were performed using ^14C labeled acetoacetate incubated with purified BRAF variants in the presence and absence of DHAA.

BRAF V600D = BRAF V600D (Homo sapiens, UniProt P15056, V600D); experiment: 14C-labeled acetoacetate binding assay; conditions: in the presence of 300 μM 14C-labeled acetoacetate
Description: as §1, §2

BRAF V600R = BRAF V600R (Homo sapiens, UniProt P15056, V600R); experiment: 14C-labeled acetoacetate binding assay; conditions: in the presence of 300 μM 14C-labeled acetoacetate
Description: as §1, §2

BRAF V600E [2] = biological target: T1, BRAF V600E; experiment: thermal melt shift assay, purified recombinant protein; assay type: binding
Description: Arrows in the panel indicate melting temperatures at 0 μM (left) and 400 μM (right).
(§3) Whether functional inhibition of acetoacetate would attenuate BRAF V600E tumor growth was examined. Dehydroacetic acid (DHAA) (FIG. 4A) is an inhibitory homologue of acetoacetate.

FLAG-tagged BRAF V600E = biological target: T2, FLAG-tagged BRAF V600E (Homo sapiens, UniProt P15056, V600E); experiment: cellular thermal shift assay, lysates of transfected 293T cells; assay type: binding; conditions: 400 μM
T2 construct: FLAG; expressed in transfected cells; host or cells: 293T cells (lysates)
Source text: as §3

BRAF V600E [3] = biological target: T1, BRAF V600E; experiment: BRAF V600E kinase activity (Vmax and Km), MEK1 as substrate; assay type: biochemical
Description: (§4) Whether DHAA inhibits BRAF V600E directly was examined. […] In contrast, DHAA had no effect on BRAF WT-MEK1 binding or MEK1 phosphorylation in a control experiment using purified BRAF WT incubated with MEK1 in the presence of acetoacetate (FIG. 4I left panel). […] This is physiologically consistent with the acetoacetate levels determined as approximately 300 μM in stable HMGCL knockdown A375 and A2058 cells.

BRAF V600E-MEK1 binding = BRAF V600E-MEK1 binding (Homo sapiens, UniProt P15056, V600E); experiment: cell-free in vitro coupled protein-protein binding and kinase assay; assay type: biochemical
Description: as §4

BRAF WT-MEK1 binding = BRAF WT-MEK1 binding (Homo sapiens, UniProt P15056); experiment: as above; assay type: biochemical; conditions: in the presence of acetoacetate
Description: as §4

[4] = test system: A375 cells expressing BRAF V600E; experiment: melanoma cell treatment: proliferation, MEK1/ERK1/2 phosphorylation, BRAF-MEK1 binding; assay type: cell-based, human
[5] = test system: A2058 cells expressing BRAF V600E; experiment: as above; assay type: cell-based, human
[6] = test system: SK-MEL-5 cells expressing BRAF V600E; experiment: melanoma cell proliferation; assay type: cell-based
[7] = test system: WM-266-4 cells expressing BRAF V600D; experiment: melanoma cell proliferation; assay type: cell-based
[8] = test system: Me1-ST cells expressing BRAF V600E; experiment: immortalized melanocyte treatment: proliferation, MEK-ERK activation, BRAF-MEK1 binding; assay type: cell-based
[9] = test system: Me1-ST parental or control cells expressing BRAF WT or tBRAF; experiment: as above; assay type: cell-based
[10] = test system: BRAF V600E-expressing human melanoma A375 cells; experiment: A375 xenograft in nude mice; assay type: in vivo
[11] = test system: BRAF V600E-expressing human melanoma A2058 cells; experiment: A2058 xenograft in nude mice; assay type: in vivo
Source text: Xenograft tumor growth and in nude mice inoculated with BRAF V600E-positive human melanoma A2058 fed with normal or high-fat diets followed by intraperitoneal injection with DHAA.

[12] = serum and tumor metabolite levels and body weight of xenograft mice; assay type: in vivo
[13] = chronic injection of DHAA to nude mice (tolerability); assay type: in vivo
hepatomas = conditions: rats fed 4-(methylamino)azobenzene; cited from earlier work
[14] = DHAA at 200 μM, acetoacetate at 300 μM
[15] = BRAF V600E pre-treated with acetoacetate (300 μM)
[16] = co-treatment with DHAA, high-fat diet
[17] = tumors harvested from xenograft mice

Sequence of BRAF V600E-MEK1 binding (P15056 whole entry V600E): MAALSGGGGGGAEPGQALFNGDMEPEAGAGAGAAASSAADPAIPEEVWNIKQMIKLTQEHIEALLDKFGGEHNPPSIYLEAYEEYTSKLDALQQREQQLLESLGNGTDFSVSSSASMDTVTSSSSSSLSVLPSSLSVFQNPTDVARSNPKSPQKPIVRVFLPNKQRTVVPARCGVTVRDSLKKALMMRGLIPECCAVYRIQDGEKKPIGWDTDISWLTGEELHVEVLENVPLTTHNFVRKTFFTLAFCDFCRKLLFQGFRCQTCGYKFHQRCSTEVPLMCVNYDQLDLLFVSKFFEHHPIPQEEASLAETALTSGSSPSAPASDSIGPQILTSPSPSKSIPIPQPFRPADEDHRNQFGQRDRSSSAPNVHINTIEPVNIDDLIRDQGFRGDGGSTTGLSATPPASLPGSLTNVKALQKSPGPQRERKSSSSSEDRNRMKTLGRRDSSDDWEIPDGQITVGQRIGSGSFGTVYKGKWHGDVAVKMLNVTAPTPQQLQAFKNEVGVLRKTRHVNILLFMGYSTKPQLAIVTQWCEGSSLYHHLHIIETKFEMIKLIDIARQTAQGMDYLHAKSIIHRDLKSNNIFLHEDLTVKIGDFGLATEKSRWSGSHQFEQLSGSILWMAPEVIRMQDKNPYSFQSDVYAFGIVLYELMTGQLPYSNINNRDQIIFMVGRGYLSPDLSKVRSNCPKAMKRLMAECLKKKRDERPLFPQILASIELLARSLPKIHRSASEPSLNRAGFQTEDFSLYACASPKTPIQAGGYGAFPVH
T1 sequence (P15056 whole entry V600E): as above
Sequence of BRAF WT-MEK1 binding (P15056 whole entry): as the sequence (P15056 whole entry V600E) above, with E600V counted along it
T2 sequence (P15056 whole entry V600E): as the sequence (P15056 whole entry V600E) above
Sequence of BRAF V600R (P15056 whole entry V600R): as the sequence (P15056 whole entry V600E) above, with E600R counted along it
Sequence of BRAF V600D (P15056 whole entry V600D): as the sequence (P15056 whole entry V600E) above, with E600D counted along it

CC(=O)c1c(O)oc(C)cc1=O [DHAA, 3-Acetyl-2-hydroxy-6-methyl-4H-pyran-4-one]
competition with acetoacetate for BRAF V600E binding (BRAF V600E [1]; BRAF V600E pre-treated with 14C-labeled acetoacetate, increasing concentrations of DHAA): competed with acetoacetate for BRAF V600E binding in a dose-dependent manner | block of acetoacetate binding by pre-treatment (BRAF V600E [1]; DHAA 200 μM pre-treatment, 14C-labeled acetoacetate up to 400 μM): sufficient to block acetoacetate binding | competition with acetoacetate for BRAF V600E binding (BRAF V600E [1]; [14]): sufficient to compete | Ki (BRAF V600E [1]; in the presence of 300 μM 14C-labeled acetoacetate): ~88 µM | binding ability of BRAF V600E mutant forms to acetoacetate (BRAF V600E [1]; treatment with DHAA, BRAF V600E and tBRAF V600E): significant decrease in binding ability | Ki (BRAF V600D): ~88 µM | Ki (BRAF V600R): ~91 µM | binding in thermal melt shift assay (BRAF V600E [2]): directly binds | affinity for BRAF V600E relative to acetoacetate (FLAG-tagged BRAF V600E): higher affinity than acetoacetate | binding in cellular thermal shift assay (FLAG-tagged BRAF V600E): bound only to BRAF V600E | activating effect of acetoacetate on BRAF V600E (increased Vmax, decreased Km) (BRAF V600E [3]; in the presence of acetoacetate (300 μM)): effectively reversed the activating effect of acetoacetate | BRAF V600E kinase activity (Vmax and Km) (BRAF V600E [3]; increasing concentrations of DHAA alone): did not affect BRAF V600E kinase activity | acetoacetate-enhanced MEK1 binding to BRAF V600E (BRAF V600E-MEK1 binding; [15]): effectively inhibited | phosphorylation of V600E-bound MEK1 (BRAF V600E-MEK1 binding; [15]): effectively inhibited | BRAF V600E-MEK1 binding and phosphorylation of MEK1 enhanced by acetoacetate (BRAF V600E-MEK1 binding; [14]): inhibit BRAF V600E-MEK1 binding and phosphorylation of MEK1 | BRAF WT-MEK1 binding (BRAF WT-MEK1 binding): had no effect | MEK1 phosphorylation (BRAF WT-MEK1 binding): had no effect | BRAF V600E-MEK1 association [4]: selectively inhibited | cell proliferation [4]: selectively inhibited cell proliferation; also recorded: selectively inhibits | phosphorylation of MEK1 and ERK1/2 [4]: selectively inhibited phosphorylation of MEK1 and ERK1/2 | BRAF V600E-MEK1 association [5]: selectively inhibited | cell proliferation [5]: selectively inhibited cell proliferation; also recorded: selectively inhibits | phosphorylation of MEK1 and ERK1/2 [5]: selectively inhibited phosphorylation of MEK1 and ERK1/2 | cell proliferation [6]: selectively inhibited cell proliferation | cell proliferation [7]: selectively inhibited cell proliferation | BRAF V600E-MEK1 binding [8]: selectively inhibited | MEK-ERK activation [8]: selectively inhibited | cell proliferation [8]: selectively inhibited | BRAF-MEK1 binding [9]: but not parental or control cells | high-fat diet-dependent enhancement of BRAF V600E-MEK1 binding in tumors ([10]; DHAA, high-fat diet): significantly attenuated | high-fat diet-dependent enhancement of cell proliferation rates (Ki67) in tumors ([10]; DHAA, high-fat diet): significantly attenuated | high-fat diet-dependent enhancement of phosphorylation of MEK1 and ERK1/2 in tumors ([10]; DHAA, high-fat diet): significantly attenuated | high-fat diet-enhanced tumor growth potential [10, 16]: effectively reversed the enhanced tumor growth potential | HMGCL expression in tumors ([10]; mouse, in vivo): without affecting HMGCL expression | BRAF V600E-MEK1 binding in tumors ([10]; single agent): reduced binding between BRAF V600E-MEK1 | cell proliferation rates in tumors (Ki67 IHC staining) ([10]; single agent): reduced cell proliferation rates | phosphorylation of MEK1 and ERK1/2 in tumors ([10]; single agent): selectively inhibited phosphorylation of MEK1 and ERK1/2 | xenograft tumor growth (growth rates, sizes, masses) ([10]; single agent, normal diet): effectively inhibited xenograft tumor growth rates, sizes and masses | high-fat diet-dependent enhancement of BRAF V600E-MEK1 binding in tumors ([11]; DHAA, high-fat diet): significantly attenuated | high-fat diet-dependent enhancement of cell proliferation rates (Ki67) in tumors ([11]; DHAA, high-fat diet): significantly attenuated | high-fat diet-dependent enhancement of phosphorylation of MEK1 and ERK1/2 in tumors ([11]; DHAA, high-fat diet): significantly attenuated | high-fat diet-enhanced tumor growth potential [11, 16]: effectively reversed the enhanced tumor growth potential; also recorded: reverses high-fat diet-enhanced BRAF V600E tumor growth | HMGCL expression in tumors ([11]; mouse, in vivo): without affecting HMGCL expression | BRAF V600E-MEK1 binding in tumors ([11]; single agent): reduced binding between BRAF V600E-MEK1 | cell proliferation rates in tumors (Ki67 IHC staining) ([11]; single agent): reduced cell proliferation rates | phosphorylation of MEK1 and ERK1/2 in tumors ([11]; single agent): selectively inhibited phosphorylation of MEK1 and ERK1/2 | xenograft tumor growth (growth rates, sizes, masses) ([11]; single agent, normal diet): effectively inhibited xenograft tumor growth rates, sizes and masses | body weight ([12]; effect of treatment): did not affect body weight | serum cholesterol levels ([12]; effect of treatment): did not affect; also recorded: had no effect | serum glucose levels ([12]; effect of treatment): did not affect; also recorded: had no effect | serum levels of 3HB (β-hydroxybutyrate) ([12]; effect of treatment): did not affect; also recorded: had no effect | serum levels of acetoacetate ([12]; effect of treatment): had no effect | acetoacetate levels in tumors [12, 17]: did not affect | β-hydroxybutyrate levels in tumors [12, 17]: did not affect | histopathological analyses and weights of diverse organs ([13]; 200 mg/kg/day intraperitoneally, ~4 weeks): did not cause notable differences | components of the gut microbiota ([13]; chronic treatment): altered proportions but no loss of any components | effect on the mouse gut microbiome ([13]; chronic treatment): had no obvious effect | total DNA amount extracted from bacteria in mouse feces ([13]; chronic treatment): unaltered total DNA amount | well-tolerated dose ([13]; intraperitoneally, ~4 weeks): 200 mg/kg/day | toxicity in vivo ([13]; mouse, in vivo): does not cause obvious toxicity in vivo | complete blood counts (CBC) or hematopoietic properties ([13]; representative A375 xenograft mice, compared to the water-treated group): did not alter | induction of hepatomas (hepatomas): inhibitory effect
